# Source: patent US8703947B2, “Compounds for treatment of Alzheimer's disease” (Purdue Research Foundation, priority 2008, dated 2014)
# System: Aβ production in Chinese hamster ovary cells that over-express human APP695 with the London and Swedish mutations
# Assay: Cellular Aβ IC50 determination (Aβ40 sandwich ELISA)
# Format: cell-based
# Conditions: Cricetulus griseus; Aβ40 content after 24 h incubation, CHO cells over-expressing human APP695
# Experimental: Cellular Aβ IC50 Determinations. The potency of compounds against memapsin 2 catalytic activity was determined in a cellular assay of Aβ production. […] Chinese hamster ovary cells that over-express human APP695 with the London and Swedish mutations were seeded in multi-well plates at 10% confluency. Compounds are dissolved in DMSO to concentrations near 1 mM, and diluted into culture media to a final concentration near 4 μM (final 0.4% DMSO). Compounds were diluted serially and applied to cells in multi-well plates 48 h after seeding. Incubation was continued in 5% CO2 at 37 degrees C. for 24 h. Aliquots were removed and assayed for Aβ40 content using a sandwich ELISA (BioSource International). Amount of Aβ40 over the range of concentration of compounds, relative to control incubations, were fit to a 4-parameter IC50 model.
row,SMILES,IC50 [µM]
1,"Cc1nc(CN(C)C(=O)c2cccc(C(=O)N[C@@H](Cc3ccccc3)[C@H](O)C3NCCN(Cc4ccccc4)C3=O)c2)cs1 (single isomer, unassigned) [Example 11a]",< 10

# Target: memapsin 2 (Homo sapiens (Human), UniProt P56817)
# Sequence (P56817 46-501): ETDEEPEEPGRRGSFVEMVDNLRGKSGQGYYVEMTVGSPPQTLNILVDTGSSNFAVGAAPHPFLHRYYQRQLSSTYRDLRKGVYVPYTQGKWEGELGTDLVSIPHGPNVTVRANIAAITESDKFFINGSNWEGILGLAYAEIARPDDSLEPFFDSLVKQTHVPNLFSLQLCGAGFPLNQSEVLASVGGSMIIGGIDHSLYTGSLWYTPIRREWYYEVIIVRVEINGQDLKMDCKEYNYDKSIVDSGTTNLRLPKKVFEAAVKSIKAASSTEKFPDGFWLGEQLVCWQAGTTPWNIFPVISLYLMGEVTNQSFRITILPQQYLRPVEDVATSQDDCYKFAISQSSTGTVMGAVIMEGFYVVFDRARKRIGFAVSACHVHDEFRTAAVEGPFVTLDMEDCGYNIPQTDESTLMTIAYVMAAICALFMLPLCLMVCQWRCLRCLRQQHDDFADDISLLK
# Assay: Inhibition of memapsin 2 catalytic activity toward fluorogenic substrate FS-2
# Format: biochemical
# Conditions: memapsin 2, pH 4, 37° C., 20 minutes pre-incubation, tight-binding model
# Experimental: Inhibition of Memapsin 1, Memapsin 2, and Cathepsin D Catalytic Activity. A substrate peptide H3N-ELDLAVEFWHDR—CO2 (SEQ ID NO:1) (used for inhibition assay of memapsin 2, memapsin 1, and cathepsin D) was dissolved at 2 mg/mL in DMSO and diluted 1:100 in 0.1 M sodium acetate, pH 4.0 just prior to assay. Inhibitor dissolved in DMSO was diluted into 0.1 M sodium acetate, pH 4.0 (1:100 dilution). A 50 μL aliquot of the inhibitor solution in pH 4 buffer was combined with 150 μL of 0.1 M sodium acetate containing 100-200 nM of memapsin 1, memapsin 2, or cathepsin D. Following a pre-incubation at 37° C., the proteolytic assay was initated by addition of 50 μl of the substrate diluted into pH 4 buffer, and incubation continued at 37° C. Aliquots were removed at time intervals, and combined with an equal volume of MALDI-TOF matrix ([…] in acetone, 20 mg/mL) and immediately spotted in duplicate onto a stainless-steel MALDI sample plate. MALDI-TOF mass spectrometry was performed on a PE Biosystems Voyager DE instrument at the Molecular Biology Resource Center on campus. The instrument was operated at 25,000 accelerating volts in positive mode with a 150 ns delay. Ions with a mass-to-charge ratio (m/z) were detected in the range of 650-2000 atomic mass units. Data were analyzed by the Voyager Data Explorer module to obtain ion intensity data for mass species of substrates and corresponding products in a given mixture. Relative product formation was calculated as the ratio of signal intensity of the product to the sum of signal intensities of both product and the corresponding substrate. Relative product formed per unit time was obtained from non-linear regression analysis of the data representing the initial 15% formation of product using the model: 1−e^−kT where k was the relative hydrolytic rate constant and T was time in seconds. Alternatively, relative hydrolytic rates were determined using a fluorogenic cleavage assay (Ermolieff, J. et al., Biochemistry, 39: 12450-12456 (2000)). Initial rates from either method were expressed relative to uninhibited controls and the inhibition constant Ki was determined by a non-linear fit to a tight-binding model of competitive inhibition (Bieth, J., Bayer—Symposium V. Proteinase Inhibitors, pp 463-469, Spinger-Varlag, Berlin (1994)). Results are shown in
# Inhibition of Memapsin 2. The potencies of compounds were determined by measurement of their inhibition of memapsin 2 catalytic activity toward a fluorescent substrate. Kinetic inhibition experiments were performed using the procedure as described in Ermolieff, et al. Biochemistry 39:12450-12456 (2000), the teachings of which are incorporated hereby in their entirety. Briefly, assays were performed at pH 4, 37° C., by pre-incubation of memapsin 2 enzyme with compound for 20 minutes. Activity measure was initiated by addition of a fluorogenic substrate FS-2 (Bachem Americas, Torrance, Calif.). Fluorescent signal increase over time was measured as a rate of hydrolysis of the peptide substrate. Inhibition of hydrolytic rate was expressed relative to uninhibited controls and fit to a model for tight-binding inhibitors (J. Bieth, in “Proteinase Inhibitors,” Bayer Symposium V, 463-469, 1974).
row,SMILES,Ki [µM]
1,"Cc1nc(CN(C)C(=O)c2cccc(C(=O)N[C@@H](Cc3ccccc3)[C@H](O)C3NCCN(Cc4ccccc4)C3=O)c2)cs1 (single isomer, unassigned) [Example 11a]",< 1
2,"Cc1nc(CN(C)C(=O)c2cccc(C(=O)N[C@@H](Cc3ccccc3)[C@H](O)C3NCCN(Cc4ccccc4)C3=O)c2)cs1 (single isomer, unassigned) [Example 11b]",> 10
3,"COc1cccc(C[C@@H]2CC[C@H]([C@@H](O)CNC(=O)c3cc(C(=O)N[C@H](C)c4ccccc4)cc(N(C)S(C)(=O)=O)c3)N2C(=O)OC(C)(C)C)c1 [Comparison compound A, reference compound]",> 1
4,"COc1cccc(C[C@@H]2CC[C@H]([C@@H](O)CNC(=O)c3cc(C(=O)N[C@H](C)c4ccccc4)cc(N(C)S(C)(=O)=O)c3)N2)c1 [Comparison compound B, reference compound]",> 10
5,C[C@@H](NC(=O)c1cc(C(=O)N[C@@H](Cc2ccccc2)[C@H](O)C2NCCN(Cc3ccccc3)C2=O)cc(N(C)S(C)(=O)=O)c1)c1ccccc1 (some centres unmarked) [Example 10],< 10
6,C[C@@H](NC(=O)c1cc(C(=O)N[C@@H](Cc2ccccc2)[C@H](O)C2Cc3ccccc3CN2)cc(N(C)S(C)(=O)=O)c1)c1ccccc1 (some centres unmarked) [GRL-0196-AL],> 10
7,Cc1csc([C@H]2CCCN2C(=O)c2cccc(C(=O)N[C@@H](Cc3ccccc3)[C@H](O)[C@@H]3NCCN(Cc4ccccc4)C3=O)c2)n1 [GRL-0299],< 1
8,Cc1csc([C@H]2CCCN2C(=O)c2cccc(C(=O)N[C@@H](Cc3ccccc3)[C@H](O)[C@@H]3NCCN(CC(C)C)C3=O)c2)n1 [GRL-0669AL],< 1
9,COc1ccc(CN2CCN[C@@H]([C@@H](O)[C@H](Cc3ccccc3)NC(=O)c3cccc(C(=O)N4CCC[C@@H]4c4nc(C)cs4)c3)C2=O)cc1 [GRL-0819AL],< 1
10,CC(C)CN1CCN[C@@H]([C@@H](O)[C@H](Cc2ccccc2)NC(=O)c2cc(C(=O)N[C@H](C)c3ccccc3)cc(N(C)S(C)(=O)=O)c2)C1=O [GRL-0849AL],< 1
11,COc1ccc(CN2CCN[C@@H]([C@@H](O)[C@H](Cc3ccccc3)NC(=O)c3cc(C(=O)N[C@H](C)c4ccccc4)cc(N(C)S(C)(=O)=O)c3)C2=O)cc1 [GRL-0889AL],< 1
12,COc1cccc(CN2CCN[C@@H]([C@@H](O)[C@H](Cc3ccccc3)NC(=O)c3cccc(C(=O)N4CCC[C@@H]4c4nc(C)cs4)c3)C2=O)c1 [GRL-1069AL],< 1
13,COc1cccc(CN2CCN[C@@H]([C@@H](O)[C@H](Cc3ccccc3)NC(=O)c3cc(C(=O)N[C@H](C)c4ccccc4)cc(N(C)S(C)(=O)=O)c3)C2=O)c1 [GRL-1079AL],< 1
